# What was measured:
# tumor blood vessels = assay: Tumor animal model, bolus IV injection (FIG. 23-26); assay type: in vivo, mice; details: bolus IV injection at day 0
# Source text: Treatment was done at day 0 by bolus IV injection. A. Raw data of tumor growth curves of the mice in the control group. B. Raw data of tumor growth curves of the mice in the treatment group. C. Comparison of the combined growth data of the control group and the treatment group.
# Pictures of the whole animals in the experiment described in FIG. 11 show tumor morphological and color changes on day 1 and day 3. Treatment was done at day 0. Tumors in the treatment groups becomes darker in color on day 1 due to the destruction of tumor blood vessels and accumulation of blood in the tumors. Tumors in the treatment groups start to become yellower in color on day 3, consistent with the onset of tumor necrosis due to the lack of tumor blood vessels.
# FIG. 25A-B show tumor morphological changes on live animals due to the treatment by PLXDC1-activating compound. Pictures of the whole animals in the experiment described in FIG. 11 show tumor morphological and color changes on day 7. Treatment was done at day 0. While the tumors in the control group have grown to large sizes, tumors in the treatment groups have highly shrunk in size and become yellow in color.
# FIG. 26A-B show morphological changes of dissected tumors due to the treatment by PLXDC1-activating compound. Pictures of the dissected tumors in the experiment described in FIG. 11 show tumor morphological and color changes on day 7. […]
# [1] = system: LL/2 lung cancer tumor endothelial cells; assay: Lung LL2 ex vivo model of tumor angiogenesis; assay type: cell-based, mouse; details: 20 μm
# Method in brief: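 LL2 mouse tumor fragments (~0.075 mm³) embedded in Matrigel and cultured in endothelial growth medium at 37 °C until endothelial outgrowth (~4 days) before treatment. Cell death assessed e.g. 48 h after drug by fluorescein diacetate (live)/propidium iodide (dead) staining and red/green fluorescence imaging.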
structure (smiles),measurement,setting,value
CCCCCCCCCCCCCCOc1ccc(S(=O)(=O)c2cnc3ccc([S+](C)[O-])cc3c2N2CCC(N3CCC(N4CCN(C)CC4)CC3)CC2)cc1 (stereo not drawn) [Compound 346],Tumor growth / shrinkage,tumor blood vessels,shrank the tumors significantly
same,48 hrs (morphology observations),"[1]; 48 hours, LL/2 tumor endothelial cells",* (50% or less of cells vesicularize in cell shape)
same,Cell death,"[1]; drug treatment for two days, ratio of red area to total endothelial cell area",20%

# Source: US20250230226A1, “PLXDC1/PLXDC2 ACTIVATORS AND THEIR USE IN THE TREATMENT OF BLOOD VESSEL DISORDERS” (THE REGENTS OF THE UNIVERSITY OF CALIFORNIA, priority 2019, published 2025)
